Assay results reported in patent publication EP2518139A1, “Use of indirubin derivatives for producing pluripotent stem cells” (Universitätsklinikum Jena, priority 2011, dated 2012).

Tests used:
[1] = test system: Smad1, Smad2, Smad4, Smurf1 and Smurf2; assay: qRT-PCR of Smad and Smurf expression in HeLa cells; assay type: cell-based, human; settings: BMP2 plus E738, 24h
Method: RT-PCR: Total RNA was isolated with RNA isolation kit from Qiagen according to the manufacturer's instructions. cDNA was generated by reverse-transcription of equivalent quantities of RNA and Quantitative real-time PCR (QRT-PCR) was performed as described previously.
We considered the possibility of E738 to block Smads RNA synthesis. […] The expressions of Smad-relative E3 ligases, Smurf1 and Smurf2, were inhibited more effectively and only 50% Smurf1 and 30% Smurf2 was remained to expressed. The results provided the regulation of indirubin in RNA level of R-Smads. […] We thus concluded occurrence of degradation direct in protein level rather than in RNA level.

[2] = test system: Parp; assay: Parp cleavage by immunoblot; assay type: cell-based; settings: E738 (1µM), FCS 10% or BMP2 (100ng/mL)
Method: The Figures show: • Figure 1: IRDs impacted on the activation of BMP-associated Smad1/5/8 in HeLa and HFF. Phosphorylation of Smad1 (Ser463/465)/5 (Ser463/465)/8 (Ser426/428) and pan Smad1/5/8 were detected by immunoblot after 24h treatment with IRDs as indicated at 1µM or 5µM a) in HeLa with the stimuli of BMP2 (100ng/mL), b) FCS 10%, c) in HFF with the stimuli of BMP2 (100ng/mL) or d) FCS 10%. […] Data were normalized to the value of non-treated cells, show the mean ± SD of quadruplicates and are representative of three independent experiments. […] Total lysates were analyzed by immunoblot using proper antibodies. b) Cell extracts of BMP-treated HeLa cells with or without compounds were subject to immunoblot using p- and pan-Smad1/5/8 antibodies. c) HeLa cells were incubated with or without E738 (1µM) after a 1 h pulse of BMP2, d) or with DM (1µM) and E738 (1µM) for the indicated periods. • Figure 4: R-Smad regulated by E738 in time- and dose-response studies. HeLa cells were treated with BMP2 (100ng/mL) in the presence or absence of E738 (1µM) in a time course study as indicated and analyzed, a) by immunoblot using antibodies against p-Smad1/5/8 at C tail, p-Smad1/5/8 at S206), Smad1/5/8, p-Erk1/2, p-JNK and p-P38 or b) qRT-PCR using primers of ID1 and ID2. […] The expression of Smad1, Smad2, Smad4, Smurf1 and Smurf2 were analyzed by qRT- PCR. […]

COc1ccc2c(c1)C(=C1Nc3ccccc3C1=NOCC(O)CO)C(=O)N2 (centres unmarked) [E738]
Smad1 expression, repressed up to [1]: up to 60% | Smad2 expression, repressed up to [1]: ≤ 30% | Smurf1 remained to expressed [1]: 50% | Smurf2 remained to expressed [1]: 30% | Parp cleavage [2]: induced Parp cleavage
